Measured values from patent publication US20040137639A1, “Method of judging efficacy of biological state action affecting bioligical state, judging apparatus, judging system, judging program and recording medium holding the program” (priority 2001, published 2004).

Tested on: depressive patient
Assay: Fluctuation in the difference of Lyapunov exponent and entropy (mirror dynamic) under medication
Format: in vivo, human
Conditions: Patient A or Patient B, early stages of treatment, FIG. 15
Protocol: Taking for an example the case where the action that may change a biological state is a medication, described below is a judging method for the symmetric property of Lyapunov exponent and entropy directly from the graph where the variations of these exponents with time are recorded.
This means, in other words, there exist fluctuations in the difference between Lyapunov exponent and entropy, and such a state can be called “mirror dynamic”. […] On the other hand, the fluctuation in the difference (shadow area) of Lyapunov exponent and entropy is minor in the early stages of treatment for Patient B, and therefore it can be judged that the effectiveness of medication of cloxazolam (1 mg) is low. […]
In the method according to this embodiment for judging the efficacy of an action, measurements of Lyapunov exponent and entropy are carried out at least twice, i.e. before and after the medication. […] Lyapunov exponent and entropy measured at least once after the medication are compared to the results before the medication, the variation in the symmetric property between the Lyapunov exponent and the entropy and the directional property of temporal variation in the difference between the Lyapunov exponent and the entropy, and then the effectiveness of the drug can be judged. […]

`O=C1CN2CCOC2(c2ccccc2Cl)c2cc(Cl)ccc2N1` (stereo not shown) [cloxazolam, Cloxazolam] was tested, and the “effectiveness of medication judged from fluctuation in the difference (shadow area) of Lyapunov exponent and entropy” value was “low”.
